Data from patent US20240327415A1, “Multicomponent Complexes, Including Salts, Crystalline Forms, and Hydrates and Solvates of ENT1 Inhibitors” (iTeos Belgium SA, priority 2023, published 2024).

Key:
Assay type in all cases: physicochemical
[1] = hydration mapping studies (slurries at different water activities, Example 17); conditions: aw 0.1, dried 40° C. reduced pressure 24 hr
Description: Example 17—Hydration Mapping Studies-Crystalline Form 2 Compound 1 di(hydrogen sulfate) trihydrate, Crystalline Form 3 Compound 1 di(hydrogen sulfate), and Blend: The effects of different water activities on crystalline Form 2 Compound 1 di(hydrogen sulfate) trihydrate, crystalline Form 3 Compound 1 di(hydrogen sulfate) and a blend of the two were investigated. The “blend” was prepared by mixing crystalline Form 2 Compound 1 di(hydrogen sulfate) trihydrate and crystalline Form 3 Compound 1 di(hydrogen sulfate) in a 1:1 ratio. To the vials containing the required solid material, the appropriate solvent system was added to form slurries. The slurry samples were stirred at the required temperatures during and after the solvent addition. Where dissolution was observed post-solvent addition, additional solid was added to re-saturate the sample. After stirring at the required temperature for 48 hours, the residual solids left in the vials were analyzed by XRPD to assess the solid forms. The analyzed samples were then dried on the XRPD plate under reduced pressure at 40° C. for 24 hr. The dried samples were analyzed by XRPD.

[2] = seven-day solid stability studies (ambient; 40° C./75% RH; 80° C.), XRPD and HPLC
Description: (§1) In the experiment, one set of vials was exposed to ambient light, temperature and humidity conditions. Another was exposed openly to 40° C. and 75% RH conditions and a third was sealed and exposed to 80° C. conditions. After 7 days, XRPD and HPLC measurements were collected.
(§2) Example 12-Stability Studies of Amorphous Compound 1 (free base) and Crystalline Form 1 Compound 1 (free base): Seven-day stability studies were carried out comparing amorphous Compound 1 (free base) and crystalline Form 1 Compound 1 (free base) at 40° C./75% RH, under ambient conditions and at 80° C. After storage at 40° C./75% RH and 80° C., the amorphous material formed glassy solids which were pale yellow (40° C./75% RH) or orange (80° C.). It is likely that the material melted and re-solidified at 80° C. and deliquesced at 40° C./75% RH. […] (decrease in purity of ca. 11% area).
(§3) Example 15-Stabilities Studies-Crystalline Form 3 Compound 1 di(hydrogen sulfate) and Crystalline Form 4 Compound 1 mono(hydrogen sulfate): Seven-day stability studies were carried out on the prepared crystalline Form 3 Compound 1 di(hydrogen sulfate) and crystalline Form 4 Compound 1 mono(hydrogen sulfate) using the following conditions: (1) Ambient light, temperature and humidity conditions (open vial); (2) 40° C./75% RH (open vial); and (3) 80° C. (closed vial). After 7 days of storage under the specified conditions, XRPD and HPLC analyses were carried out on the residual solid materials, and the results are summarized in Table 51.
Example 18-Seven Day Stability Study on Crystalline Form 2 Compound 1 di(hydrogen sulfate) trihydrate: A 7-day stability study was conducted on crystalline Form 2 Compound 1 di(hydrogen sulfate) trihydrate using the following conditions: (1) ambient light, temperature, and humidity conditions (open vial); (2) 40° C., 75% RH (open vial); and (3) 80° C. (closed vial). After 7 days of storage under the specified, XRPD and HPLC analyses were carried out on the residual solid materials.

[3] = as above; set-up: key: Crystalline Form 3 di(hydrogen sulfate); Crystalline Form 9 di(hydrogen sulfate); Melt/Amorphous; conditions: 7 days, sealed
Description: as §1, §2
as §3, with “After 7 days of storage under the specified conditions, XRPD and HPLC analyses were carried out on the residual solid materials, and the results are summarized in Table 51.” left out

[4] = as above; set-up: key: Crystalline Form 2 di(hydrogen sulfate) trihydrate; Crystalline Form 3 di(hydrogen sulfate); M4: Crystalline Form 4 mono(hydrogen sulfate); Crystalline Form 6 di(hydrogen sulfate); 3 + 9: Mixture of Crystalline Form 3 di(hydrogen sulfate) and Crystalline Form 9 di(hydrogen sulfate); conditions: 7 days, 80° C. (closed vial)
Description: as §1, §2
as §3, with “After 7 days of storage under the specified conditions, XRPD and HPLC analyses were carried out on the residual solid materials, and the results are summarized in Table 51.” left out

[5] = salt screen, XRPD of damp, dried and 40° C./75% RH stored samples (Salt Preparation Methods 1 and 2); set-up: key: A = amorphous; * = predominantly; 1 = Form 1 Compound 1 L-malate; 2 = Form 2 Compound 1 L-malate; conditions: L-Malic acid, 1 equiv.; MEK; AS Heptane
Description: Salt Preparation Method 1: Approximately 25 mg of Compound 1 (free base) was weighed out into 1.5 mL screw-cap vials and a stirrer bar was added. For solid counterions, the appropriate amount of acid (1.0 or 2.0 equiv.) was weighed into separate 1.5 mL screw-cap vials. 100 μL of the appropriate solvent system was added to both the Compound 1 and the solid counterions. Stock solutions of liquid counterions were prepared, such that 100 μL contained 1.0 or 2.0 equiv. of acid. See counterion and solvent lists in Table 60 and Table 61 respectively.
The samples were stirred at 40° C. for 5-10 min and then the acid solutions were added to Compound 1, rinsing out the transfer vial with a further 50 μL of solvent. […] Experiments were temperature cycled between 40° C. and 5° C. […]
Temperature cycling was then continued for ca. 16-69 h, followed by further ASA and temperature cycling if required. Material was isolated at 5° C. and analyzed damp by XRPD. All isolated material was dried under vacuum at ca. 40° C. for ca. 17-91 h then re-analyzed by XRPD. The XRPD plate was stored at 40° C./75% RH for 24-48 h and then samples re-analyzed. […] Any residual solids were analyzed by XRPD. […]
The experiments were stirred at 40° C. for ca. 1 h, and then temperature cycled between 40° C. and 5° C. with 0.1° C./min ramp and 1 h hold between each step. […] The damp and dried solids were subsampled and analyzed by XRPD. […]

[6] = as above; set-up: key: A = amorphous; Evap. = isolated via evaporation; conditions: L-Malic acid, 1 equiv.
Summary of the method: (§4)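 XRPD was recorded three times: on damp solids isolated at 5 °C, after ~17–91 h vacuum drying at ~40 °C, and after 24–48 h storage at 40 °C/75% RH. Solids came from stirring free base with 1.0 or 2.0 equiv. counterion at 40 °C, 40–5 °C temperature cycling, and anti-solvent addition.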

[7] = as above; conditions: L-Malic acid, 1 equiv., AS Heptane
Summary of the method: as §4

## COc1cc(C(=O)O[C@@H]2CCCOc3cc(cc(OC)c3OC)C(=O)NCCCN3CCCN(CC2)CC3)cc(OC)c1OC.O=S(=O)(O)O.O=S(=O)(O)O [Form 3 di(hydrogen sulfate)]
[1]; 20° C., 2-Propanol:Water
  XRPD, hydration studies - dried samples: 3, PC
[1]; 20° C., Acetonitrile:Water
  XRPD, hydration studies - dried samples: 3, PC
[1]; 50° C., 2-Propanol:Water
  XRPD, hydration studies - dried samples: 1, PC
[1]; 50° C., Acetonitrile:Water
  XRPD, hydration studies - dried samples: 3, PC
[2]; 7 days, 40° C./75% RH (open vial)
  HPLC: 99.82 % area
[2]; 7 days, 40° C./75% RH, open vial
  HPLC: 99.82 % area
[2]; 7 days, 80° C. (closed vial)
  HPLC: 99.80 % area
[2]; 7 days, 80° C., sealed
  HPLC: 99.80 % area
[2]; 7 days, Ambient (open vial)
  HPLC: 99.84 % area
[2]; 7 days, Ambient, open vial
  HPLC: 99.84 % area
[2]; Input sample
  HPLC: 99.83 % area
[3]
  XRPD: 9
[4]
  XRPD: 3 + 9

## O=C(O)CC(O)C(=O)O [L-Malic acid, 1 equiv.]
[5]
  XRPD Analysis 40° C. 75% RH: 1
[6]; Acetonitrile, AS tBME
  XRPD Analysis 40° C. 75% RH: A
  XRPD Analysis Damp: A
  XRPD Analysis Dry: A
[6]; Ethanol, AS Heptane
  XRPD Analysis 40° C. 75% RH: A
[6]; Ethyl acetate, AS Heptane
  XRPD Analysis 40° C. 75% RH: A
  XRPD Analysis Damp: A
  XRPD Analysis Dry: A
[6]; IPA:H2O (75:25% v/v), AS tBME
  XRPD Analysis 40° C. 75% RH: A
  XRPD Analysis Damp: A
  XRPD Analysis Dry: A
[6]; THE, AS Heptane
  XRPD Analysis 40° C. 75% RH: A
  XRPD Analysis Damp: A
  XRPD Analysis Dry: A
[7]; Ethanol
  XRPD Analysis Damp: * A
  XRPD Analysis Dry: * A
[7]; MEK
  XRPD Analysis Damp: 1 + 2
  XRPD Analysis Dry: 1 + 2
